Test results reported in patent EP1614683B1, “Indazole compounds and pharmaceutical compositions for inhibiting protein kinases, and methods for their use” (priority 1999, dated 2001).
pIC50, pKi: −log10 of the molar value. Like-named read-outs stand apart in the source and are kept apart here.

Assays:
human FGF-R1 = human FGF-R1 (Homo sapiens, UniProt P11362, C488A/C584S/L457V); assay: FGF-R spectrophotometric assay; type: biochemical; settings: for inhibition at 1 µM: compound concentration 1 µM, read-out: FGF-P* (% inhibition)
human FGF-R1, sequence (P11362 456-766 L457V/C488A/C584S): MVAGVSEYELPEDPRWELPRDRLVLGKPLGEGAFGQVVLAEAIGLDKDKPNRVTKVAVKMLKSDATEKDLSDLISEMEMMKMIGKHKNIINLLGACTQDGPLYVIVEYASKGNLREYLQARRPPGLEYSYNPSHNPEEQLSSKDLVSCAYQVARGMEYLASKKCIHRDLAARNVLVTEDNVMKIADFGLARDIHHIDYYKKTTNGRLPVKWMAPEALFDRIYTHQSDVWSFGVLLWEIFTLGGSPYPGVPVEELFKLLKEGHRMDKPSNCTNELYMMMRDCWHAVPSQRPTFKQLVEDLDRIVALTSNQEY
Method: The spectrophotometric assay was carried out as described above for VEGF-R2, except for the following changes in concentration: FGF-R = 50 nM, ATP = 2 mM, and poly(E4Y1) =15 mM.

[1] = system: lung cancer cells (line MV522); assay: Cancer cell proliferation (MV522) assay; type: cell-based; settings: for pIC50: MV522, Table 1, read-out: MV522 IC50
Method: The protocol for assessing cellular proliferation in cancer cells is similar to that used for assessments in HUVEC cells. Two thousand lung cancer cells (line MV522, acquired from American Tissue Cultural Collection) were seeded in growth media (RPMI1640 medium supplemented with 2 mM glutamine and 10% FBS). Cells are allowed to attach for 1 day prior to addition of test agents and /or vehicles. Cells are treated simultaneously with the same test agents used in the HUVEC assay. Cellular proliferation is quantified by MTT dye reduction assay 72 hours after exposure to test agents. The total length of the assay is 4 days vs. 5 for HUVEC cells because MV522 cells are not exposed to starvation medium.

[2] = system: human umbilical vein endothelial cells (HUVEC); assay: HUVEC proliferation assay (VEGF-stimulated, MTT); type: cell-based; settings: Homo sapiens, HUVEC; for pIC50: Table 1
LCK tyrosine kinase = LCK tyrosine kinase (Homo sapiens, UniProt P06239, C224D/P223M); assay: LCK spectrophotometric assay; type: biochemical; settings: read-out: Lck-P* (% inhibition)
LCK tyrosine kinase, sequence (P06239 223-509 P223M/C224D): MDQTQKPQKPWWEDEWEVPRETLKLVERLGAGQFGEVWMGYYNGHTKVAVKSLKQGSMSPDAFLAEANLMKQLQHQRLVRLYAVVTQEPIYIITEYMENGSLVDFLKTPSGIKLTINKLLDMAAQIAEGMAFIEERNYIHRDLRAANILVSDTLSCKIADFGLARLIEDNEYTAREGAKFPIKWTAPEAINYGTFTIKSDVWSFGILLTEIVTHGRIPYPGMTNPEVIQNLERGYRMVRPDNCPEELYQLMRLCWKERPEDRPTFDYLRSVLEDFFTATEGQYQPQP
Method: The spectrophotometric assay was carried out as described above for VEGF-R2, except for the following changes in concentration: LCK = 60 nM, MgCl2 = 0 mM, poly(E4Y1) = 20 mM.

human CHK1 (FL-CHK1) = target: T1, human CHK1 (FL-CHK1) (Homo sapiens, UniProt O14757); assay: CHK1 coupled spectrophotometric assay; type: biochemical; settings: Table 1; read-out: CHK -1* (Ki)
T1 construct: C-terminally His-tagged full-length human CHK1 (FL-CHK1) was expressed using the baculovirus/insect cell system; made in house; host or cells: baculovirus/insect cell system
T1 sequence (O14757 1-476): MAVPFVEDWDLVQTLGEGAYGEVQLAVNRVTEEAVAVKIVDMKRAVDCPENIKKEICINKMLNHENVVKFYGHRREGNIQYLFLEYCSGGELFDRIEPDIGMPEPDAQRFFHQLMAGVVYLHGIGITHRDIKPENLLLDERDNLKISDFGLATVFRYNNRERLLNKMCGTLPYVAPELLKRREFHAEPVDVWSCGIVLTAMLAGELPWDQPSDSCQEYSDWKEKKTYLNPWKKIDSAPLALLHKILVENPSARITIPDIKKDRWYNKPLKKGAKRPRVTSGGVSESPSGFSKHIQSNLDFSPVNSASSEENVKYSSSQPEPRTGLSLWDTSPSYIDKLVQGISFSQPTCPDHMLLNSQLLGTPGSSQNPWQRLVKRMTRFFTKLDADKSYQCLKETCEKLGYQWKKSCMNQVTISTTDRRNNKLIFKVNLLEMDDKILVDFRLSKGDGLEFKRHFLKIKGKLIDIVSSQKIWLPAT
Source text: CHK1 Construct for Assay: C-terminally His-tagged full-length human CHK1 (FL-CHK1) was expressed using the baculovirus/insect cell system. […] The protein was purified by conventional chromatographic techniques.
The production of ADP from ATP that accompanies phosphoryl transfer to the synthetic substrate peptide Syntide-2 ([…]) was coupled to oxidation of NADH using phosphoenolpyruvate (PEP) through the actions of pyruvate kinase (PK) and lactic dehydrogenase (LDH). The oxidation of NADH was monitored by following the decrease of absorbance at 340 nm (∈340 = 6.22 cm^-1 mM^-1) using a HP8452 spectrophotometer. […] Assays were initiated with 10 nM of FL-CHK1. Ki values were determined by measuring initial enzyme activity in the presence of varying concentrations of test compounds. The data were analyzed using Enzyme Kinetic and Kaleidagraph software.

[3] = target: T2, phosphorylated Tie-2 (aa 775-1122) (Homo sapiens, UniProt Q02763); assay: TIE-2 spectrophotometric assay; type: biochemical; settings: for inhibition at 1 µM: Table 5, bold values spectrophotometric assay, non-bolded DELFIA assay (bold not visible here), read-out: % Inhibition @ 1 µM Tie2-P
T2 construct: 4 to 12 nM phosphorylated Tie-2 (aa 775-1122); made in house; host or cells: insect cells
T2 sequence (Q02763 775-1122): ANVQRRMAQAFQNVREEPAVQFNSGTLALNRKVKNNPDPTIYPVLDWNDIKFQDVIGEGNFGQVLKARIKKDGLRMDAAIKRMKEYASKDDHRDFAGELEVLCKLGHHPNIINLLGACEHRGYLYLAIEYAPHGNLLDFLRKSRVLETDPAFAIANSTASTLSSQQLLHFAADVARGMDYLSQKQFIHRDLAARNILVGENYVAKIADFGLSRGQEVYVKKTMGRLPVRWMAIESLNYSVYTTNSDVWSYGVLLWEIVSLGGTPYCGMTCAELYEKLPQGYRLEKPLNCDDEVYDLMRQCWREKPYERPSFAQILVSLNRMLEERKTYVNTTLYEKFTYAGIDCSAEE
Method: This construct also carries a R774M mutation, which serves as the initiating methionine residue in translation.
The kinase-catalyzed production of ADP from ATP that accompanies phosphoryl transfer to the random copolymer poly(Glu4 Tyr) was coupled to the oxidation of NADH through the activities of pyruvate kinase (PK) and lactate dehydrogenase (LDH). NADH conversion to NAD* was monitored by the decrease in absorbance at 340 nm (ε = 6.22 cm^-1mM^-1) using a Beckman DU650 spectrophotometer. Typical reaction solutions contained 1 mM phosphoenolpyruvate, 0.24 mM NADH, 40 mM MgCl2, 5 mM DTT, 2.9 mg/mL poly(Glu4Tyr), 0.5 mM ATP, 15 units/mL PK, 15 units/mL LDH in 100 mM HEPES, pH 7.5. […]

in vitro = in vitro ADME, human; settings: human liver microsomes, 5 µM test compound, 37 °C, 2 h; for remaining at 2 h, 5 µM: read-out: % remain (HLM, 2 h)
In short: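 HLM diluted to 5 mg/mL in 100 mM KPO4, preincubated 10 min at 37 °C with NADPH-regenerating system. Compound (5 µM final) incubated at 37 °C in triplicate, sampled at 0 and 2 h into ice-cold acetonitrile, then LC-MS analysis.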

[4] = system: VEGF dependent retinal neovascularization; assay: Neonatal rat model of retinopathy of prematurity; type: in vivo; settings: Model ROP, intravitreal
Method: A second model of VEGF dependent retinal neovascularization was employed to evaluate the activities of this series of compounds. […] The animals are exposed for 24 hours to a concentration of 50% oxygen followed by 24 hours at a concentration of 10% oxygen. This alternating cycle of hyperoxia followed by hypoxia is repeated 7 times after which the animals are removed to room air (P14). Compounds are administered via intravitreal injection upon removal to room air and the animals are sacrificed 6 days later (P20). The isolated retinas are then isolated, stained mounted and analyzed as detail above in the development model. The effectiveness was also graded as is described for the development model.

in vivo = settings: mouse, plasma, po, 25 mg/kg, pH 2.3
[5] = system: VEGF dependent retinal vascular development; assay: In vivo assay of retinal vascular development in neonatal rats; parameters: species or system rat
Method: The development of the retinal vascular in rats occurs from postnatal day 1 to postnatal day 14 (P1-P14). […] To assess the ability of specific compounds to inhibit the activity of VEGF in vivo, compounds were formulated in an appropriate vehicle, usually 50% polyethylene glycol, average molecular weight 400 daltons, and 50% solution of 300 mM sucrose in deionized water. […] Six days after the intravitreal injection, the animals were sacrificed and the retinas dissected free from the remaining ocular tissue. […] The individual retinas are then flat-mount onto glass slides and examined to determine the extent of vascularization. […] The amount of vessel regression was used to assess the relative potency of the compounds after in vivo administration.
For more quantitative analysis of regression, images of ADPase-stained, flat-mounted retinas were captured with a digital camera attached to a dissecting microscope. Retinal images were then imported into an image analysis software (Image Pro Plus 4.0, Media Cybernetics, Silver Spring, MD). The software was employed to determine the percentage of the area of the retina that contained stained vessels. This value for the experimental eye was compared to that measured for the vehicle injected, contralateral eye from the same animal. The reduction in the vascular area seen in the eye that received compound as compared to the vehicle-injected eye was then expressed as the "percent regression" for that sample.

[6] = PO, 25 mg/kg, vehicle PEG400:H2O pH 2.3 30:70
[7] = + albumin, read-out: HUVEC + albumin IC50
[8] = Table 1, compound concentration 1 µM
[9] = 5 mg/ml, vehicle PEG/water 70:30
[10] = 10 mg/ml, vehicle PEG/water 70:30

Row | Compound | remaining at 2 h, 5 µM (in vitro) | pIC50 [1] | pIC50 [2, 7] | pIC50 ([2]; read-out: HUVEC IC50) | inhibition at 1 µM (LCK tyrosine kinase; [8]) | inhibition at 1 µM [3] | inhibition at 1 µM (human FGF-R1; Table 1) | % remain (HLM, 2 h) (in vitro) | also measured
1 | COc1cc(-c2ccc3c(-c4cc5ccccc5[nH]4)n[nH]c3c2)ccc1O [2(d), 3-(1H-Indol-2-yl)-6-(3-methoxy-4-hydroxy-phenyl)-1H-indazole] | – | – | – | – | – | – | – | – | pKi (human FGF-R1; Table 1, read-out: FGF-P* (Ki)): 7.17; IC50 ([1]; MV522, read-out: MV522 IC50 (µM)): 0.18 µM; IC50 ([2]; read-out: HUVEC IC50 (nM)): 450 nM; inhibition at 1 µM (LCK tyrosine kinase): 43%; pKi (human CHK1 (FL-CHK1)): 7.04; inhibition at 10 µM ([3]; read-out: % Inhibition Tie2-P, compound tested at 10 µM): 90%
2 | CC(=O)Nc1cccc(Oc2ccc3c(/C=C/c4ccccc4)n[nH]c3c2)c1 [4(b), N-[3-(3-Styryl-1H-indazol-6-yloxy)-phenyl]-acetamide] | 63% | 5.49 | 6.69 | 7.60 | 13% | 29% | – | – | pKi (human FGF-R1): 8.31
3 | Cc1cccc(C(=O)Nc2cccc(Oc3ccc4c(/C=C/c5ccccc5)n[nH]c4c3)c2)c1 [5(b), 3-Methyl-N-[3-(3-styryl-1h-indazol-6-yloxy)-phenyl]-benzamide] | – | 5.07 | 7.48 | 8.43 | 78% | – | – | – | % Inhibition [4, 9]: 45%; Initial Evaluation [4, 9]: ++ (two pluses being judged to be approximately 25-75 % regression)
4 | O=C(Nc1cccc(Oc2ccc3c(/C=C/c4ccc(Cl)cc4)n[nH]c3c2)c1)c1ccccc1 [6(a), N-(3-[3-[2-(4-Chloro-phenyl)-vinyl]-1H-indazol-6-yloxy}-phenyl)-benzamide] | 69% | 5.46 | 7.30 | 8.07 | 33% | – | 67% | – | Initial Evaluation ([4]; 5 mg/ml, vehicle PEG/water): ++ (two pluses being judged to be approximately 25-75 % regression)
5 | Cc1cccc(C(=O)Nc2cccc(Oc3ccc4c(-c5cc6ccccc6[nH]5)n[nH]c4c3)c2)c1 [6(b), N-{3-[3-(2-Indolyl)-1H-indazol-6-yloxy]-phenyl}-3-methyl benzamide] | – | 5.40 | 7.22 | 8.10 | 81% | – | 95% | – | Initial Evaluation [4, 10]: ++ (two pluses being judged to be approximately 25-75 % regression)
6 | CN(c1cccc(NC(=O)c2ccccc2)c1)c1ccc2c(/C=C/c3ccc4c(c3)OCO4)n[nH]c2c1 [16(a), N-(3-{[3-(2-Benzo[1,3]dioxol-5-yl-vinyl)-1H-indazol-6-yl]-methyl-amino}-phenyl)-benzamide] | 7% | 5.10 | 6.95 | – | 28% | 10% | 65% | – | –
7 | O=C(Nc1cccc(Oc2ccc3c(/C=C/c4cccs4)n[nH]c3c2)c1)c1ccccc1 [Reference Example 30(a), 6-[3-benzamidophenoxy]-3-E-[2-(thien-2-yl)thenyl]-1H-indazole] | – | 5.24 | 7.66 | 8.80 | 45% | 19% | 94% | 64% | % Inhibition [4, 10]: 48%; Initial Evaluation [4, 10]: ++ (two pluses being judged to be approximately 25-75 % regression)
8 | Cn1ccnc1C(=O)Nc1cccc(Oc2ccc3c(/C=C/c4ccccn4)n[nH]c3c2)c1 [Reference Example 31(e), 6-[3-((1-Methylimidazol-2-yl)carboxamido)phenoxy]-3-E-[2-(pyridin-2-yl)ethenyl]-1H-indazole] | – | 5.07 | 8.21 | – | 43% | – | 62% | 49% | AUC (in vivo): > 30300 ng·h/mL; % Inhibition ([5]; Model P8, intravitreal, 5 mg/ml, vehicle PEG/water 50:50): 24%; T1/2 [6]: 13.1 h
9 | O=C(Nc1cccc(C(=O)c2ccc3c(-c4nc5ccccc5[nH]4)n[nH]c3c2)c1)c1ccccc1 [Reference Example 42(b), 6-(3-Benzamidobenzoyl)-3-(1H-benzoimidazol-2-yl)-1H-indazole] | – | 5.68 | 7.54 | 8.68 | 75% | – | 27% | 81% | % Inhibition ([5]; Model P9, intravitreal, 10 mg/ml, vehicle PEG/water 70:30): 40%
